Patent publication US7173004B2, “Macrocyclic isoquinoline peptide inhibitors of hepatitis C virus” (Bristol-Myers Squibb Company, priority 2003, dated 2007)

tested on: HCV replicon (HCV 1b-377-neo replicon cells, Huh7); experiment: HCV replicon cell-based FRET assay; conditions: Hepatitis C virus, Huh-7
Method in brief: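 Huh7 cells carrying a neo-selectable genotype 1b HCV replicon (~3,000 RNA copies/cell) were seeded at 1.5×10^4 cells/well and treated 4 days at 37 °C (0.5% DMSO final). CC50 was read by alamar Blue (4 h, ex 530/em 580 nm). Lysates with 10 μM EDANS/DABCYL NS3 protease FRET peptide were read kinetically (ex 340/em 490 nm, 25 °C, ~15 min) for % inhibition.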

`CC(C)(C)NC(=O)N1CCC/C=C\[C@@H]2C[C@@]2(C(=O)NS(=O)(=O)C2CC2)NC(=O)[C@@H]2C[C@@H](Oc3nccc4ccccc34)CN2C(=O)[C@@H](NC(=O)OC(C)(C)C)C1` [Compound 150] and `COC(=O)N1CCC/C=C\[C@@H]2C[C@@]2(C(=O)NS(=O)(=O)C2CC2)NC(=O)[C@@H]2C[C@@H](Oc3nccc4ccccc34)CN2C(=O)[C@@H](NC(=O)OC(C)(C)C)C1` [Compound 148] fall in the same range of EC50: 50 to 500 nM for the first, 50 to 500 nM for the second.

`COc1ccc2c(OC3CC4C(=O)NC5(C(=O)NS(=O)(=O)C6CC6)CC5C=CCCCOCC(NC(=O)N5CCCC5)C(=O)N4C3)nc(-c3ccc(N(C)C)cc3)cc2c1` (centres unmarked) [Compound 111] and `COc1ccc2c(OC3CC4C(=O)NC5(C(=O)NS(=O)(=O)C6CC6)CC5C=CCCCOCC(NC(=O)NC(C)(C)C)C(=O)N4C3)nc(-c3ccc(N(C)C)cc3)cc2c1` (centres unmarked) [Compound 108] cannot be ordered by EC50: under 50 nM for the first, under 50 nM for the second.

First: CC(C)(C)OC(=O)N[C@H]1CN(S(C)(=O)=O)CCC/C=C\[C@@H]2C[C@@]2(C(=O)NS(=O)(=O)C2CC2)NC(=O)[C@@H]2C[C@@H](Oc3nccc4ccccc34)CN2C1=O [Compound 153]
Second: CC(C)(C)OC(=O)NC1CCCCCC=CC2CC2(C(=O)NS(=O)(=O)C2CC2)NC(=O)C2CC(Oc3nccc4c(Cl)cccc34)CN2C1=O (centres unmarked) [Compound 130]
The EC50 of the first is higher: 50 to 500 nM for the first, under 50 nM for the second. The second is the more potent here.

`COc1cccc2c(OC3CC4C(=O)NC5(C(=O)NS(=O)(=O)C6CC6)CC5C=CCCCCCC(NC(=O)OC(C)(C)C)C(=O)N4C3)nccc12` (centres unmarked) [Compound 133] and `COc1ccc2c(OC3CC4C(=O)NC5(C(=O)NS(=O)(=O)C6CC6)CC5C=CCCCCCC(NC(=O)OC(C)(C)C)C(=O)N4C3)nccc2c1OC` (centres unmarked) [Compound 134] cannot be ordered by EC50: under 50 nM for the first, under 50 nM for the second.

`COc1ccc2c(OC3CC4C(=O)NC5(C(=O)NS(=O)(=O)C6(C)CC6)CC5C=CCCCSCC(NC(=O)OC(C)(C)C)C(=O)N4C3)nccc2c1` (centres unmarked) [Compound 115] and `CCC1(S(=O)(=O)NC(=O)C23CC2C=CCCCSCC(NC(=O)OC(C)(C)C)C(=O)N2CC(Oc4nccc5cc(OC)ccc45)CC2C(=O)N3)CC1` (centres unmarked) [Compound 121] cannot be ordered by EC50: under 50 nM for the first, under 50 nM for the second.

First: COc1ccc2c(OC3CC4C(=O)NC5(C(=O)NS(=O)(=O)C6CC6)CC5C=CCCCCCC(NC(=O)NC5CCCC5)C(=O)N4C3)nccc2c1 (centres unmarked) [Compound 136]
Second: COc1ccc2c(OC3CC4C(=O)NC5(C(=O)NS(=O)(=O)C6CC6)CC5C=CCCCSC(C)(C)C(NC(=O)NC5CCCC5)C(=O)N4C3)nccc2c1 (centres unmarked) [Compound 82]
The EC50 of the first is lower: under 50 nM for the first, 50 to 500 nM for the second. The first is the more potent here.

`COc1ccc2c(OC3CC4C(=O)NC5(C(=O)NS(=O)(=O)C6CC6)CC5C=CCCCSCC(N)C(=O)N4C3)nccc2c1` (centres unmarked) [Compound 117] and `COc1ccc2c(OC3CC4C(=O)NC5(C(=O)NS(=O)(=O)C6CC6)CC5C=CCCCSC(C)(C)C(NC(=O)NC(C)(C)C)C(=O)N4C3)nccc2c1` (centres unmarked) [Compound 81] fall in the same range of EC50: 50 to 500 nM for the first, 50 to 500 nM for the second.

First: O=CNC1CCCCCC=CC2CC2(C(=O)NS(=O)(=O)C2CC2)NC(=O)C2CC(Oc3nccc4ccccc34)CN2C1=O (centres unmarked) [Compound 119]
Second: COc1ccc2c(OC3CC4C(=O)NC5(C(=O)NS(=O)(=O)C6CC6)CC5C=CCCCCCC(NC(=O)NC(C)(C)C)C(=O)N4C3)nccc2c1 (centres unmarked) [Compound 135]
The EC50 of the first is higher: 50 to 500 nM for the first, under 50 nM for the second.

`COc1ccc2c(OC3CC4C(=O)NC5(C(=O)NS(=O)(=O)C6CC6)CC5C=CCCCOCC(NC(=O)OC5CCCC5)C(=O)N4C3)nc(-c3ccccc3)cc2c1` (centres unmarked) [Compound 94] and `COc1ccc2c(OC3CC4C(=O)NC5(C(=O)NS(=O)(=O)C6CC6)CC5C=CCCCOCC(NC(=O)OC(C)C)C(=O)N4C3)nc(-c3ccccc3)cc2c1` (centres unmarked) [Compound 96] cannot be ordered by EC50: under 50 nM for the first, under 50 nM for the second.

Compared with `COc1ccc2c(OC3CC4C(=O)NC5(C(=O)NS(=O)(=O)C6CC6)CC5C=CCOCCCC(NC(=O)NC(C)(C)C)C(=O)N4C3)nc(-c3ccccc3)cc2c1` (centres unmarked) [Compound 102], `COc1ccc2c(OC3CC4C(=O)NC5(C(=O)NS(=O)(=O)C6CC6)CC5C=CCOCCCC(NC(=O)N5CCNC5=O)C(=O)N4C3)nc(-c3ccccc3)cc2c1` (centres unmarked) [Compound 106] is higher in EC50: under 50 nM for the first, 500 to 5000 nM for the second. The first is the more potent here.
